Source: BindingDB's records for doi:10.1016/j.bmc.2008.11.012 (Nippon Shinyaku, 2009)

Tests used:
Nociceptin receptor = Nociceptin receptor (Homo sapiens, UniProt P41146); assay: Receptor Binding Assay; conditions: pH 7.8; 25 °C
Method: (§1) Competitive binding displacement analysis was performed with membranes prepared from CHO-K1 cells stably expressing receptors. After incubation, samples were collected on GF/B glass-fiber, washed, and counted for radioactivity. IC50 values were obtained by fitting the competition binding curves according to a 4-parameter logistic model. Inhibition constants Ki were derived from the Cheng-Prusoff equation.

Mu-type opioid receptor = Mu-type opioid receptor (Rattus norvegicus, UniProt P33535); assay: Receptor Binding Assay
Method: as §1

Chain of Mu-type opioid receptor (P33535 whole entry): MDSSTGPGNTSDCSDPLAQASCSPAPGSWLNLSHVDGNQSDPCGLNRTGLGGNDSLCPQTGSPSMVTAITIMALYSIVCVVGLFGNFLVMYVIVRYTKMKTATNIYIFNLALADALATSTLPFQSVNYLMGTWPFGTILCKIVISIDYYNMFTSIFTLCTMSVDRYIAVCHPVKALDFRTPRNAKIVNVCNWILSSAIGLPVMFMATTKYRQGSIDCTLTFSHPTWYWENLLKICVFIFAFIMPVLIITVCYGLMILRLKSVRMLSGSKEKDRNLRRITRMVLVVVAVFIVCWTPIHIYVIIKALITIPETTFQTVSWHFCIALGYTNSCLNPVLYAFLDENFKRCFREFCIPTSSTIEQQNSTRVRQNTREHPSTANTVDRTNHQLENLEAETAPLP
Chain of Nociceptin receptor (P41146 whole entry): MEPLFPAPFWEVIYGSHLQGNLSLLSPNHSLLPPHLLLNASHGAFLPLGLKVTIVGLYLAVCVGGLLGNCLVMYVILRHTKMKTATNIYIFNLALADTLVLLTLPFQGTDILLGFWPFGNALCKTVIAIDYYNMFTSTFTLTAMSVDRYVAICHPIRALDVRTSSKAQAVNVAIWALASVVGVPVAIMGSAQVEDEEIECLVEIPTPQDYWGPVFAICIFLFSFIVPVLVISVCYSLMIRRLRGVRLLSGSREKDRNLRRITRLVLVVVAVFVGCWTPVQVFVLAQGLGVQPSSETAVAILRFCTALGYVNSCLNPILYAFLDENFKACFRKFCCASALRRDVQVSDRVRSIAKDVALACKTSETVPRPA

Row | Ki (Nociceptin receptor) [nM] | Ki (Mu-type opioid receptor) [nM] | Structure (SMILES)
1 | 43 | 220 | Cc1ccc2nc(C=Cc3ccc(Cl)cc3)nc(N[C@H]3CCCC[C@H]3NC(=N)N)c2c1 (racemic) [(1R,2S)-2-({2-[(E)-2-(4-chlorophenyl)ethenyl]-6-methylquinazolin-4-yl}amino)cyclohexane-1-guanidine]
2 | 152 | 60 | Cc1ccc2nc(C=Cc3ccc(Cl)cc3)nc(N[C@H]3CC[C@@H](N=C(N)N)CC3)c2c1 [4-({2-[(E)-2-(4-chlorophenyl)ethenyl]-6-methylquinazolin-4-yl}amino)cyclohexane-1-guanidine]
